Measurements as given in US9797016B2, “Methods and biomarkers for detection of bladder cancer” (OSLO UNIVERSITETSSYKEHUS HF, priority 2010, dated 2017).

Tested on: bladder cancer cell lines (5637, J82, SCaBER, TCCSUP)
Test: Quantitative gene expression analyses (real-time PCR) after epigenetic drug treatment
Assay type: cell-based, human
Details: hypermethylated bladder cancer cell lines; 1 μM or 5 μM 5-aza-dC alone, 72 hours
Method: Cell lines representative of bladder (5637, J82, SCaBER, and TCCSUP), renal cell (786-0, ACHN, Caki-1, Caki-2) and prostate (22Rv1, DU 145, LNCaP, PC-3) cancer were obtained from the American Type Culture Collection (Manassas, Va.). All cell lines were cultured according to the manufacturer's specifications, with 10% fetal bovine serum (Gibco, Invitrogen, Carlsbad, Calif.) and antibiotics (100 units/mL penicillin G, and 100 μg/mL streptomycin, Gibco), in a humidified atmosphere of 5% CO2 at 37° C. […] RNA from four bladder cancer cell lines untreated, treated either with 1 μM or 5 μM of 5-aza-2′-deoxycytidine for 72 hours, and treated with the combination of 1 μM of 5-aza-dC (72 h) and 0.5 μM of trichostatin (added the last 12 h) was analyzed. […] GDF15 (Hs00171132_m1), HSPA2 (Hs00356607_g1), TMEFF2 (Hs01086901_m1), VIM (Hs00185584_m1), and endogenous controls assays GUSB (Hs99999908_m1) and HPRTJ (Hs99999909_m1), were amplified separately in 96-well plates following the recommended protocol (Applied Biosystems), and the real time quantitative gene expression was measured by the 7500 Real-Time PCR System (Applied Biosystems). All samples were analyzed in triplicate, and the mean value was used for data analysis. […]

Nc1ncn([C@H]2C[C@H](O)[C@@H](CO)O2)c(=O)n1 [5-aza-dC, 5-aza-2′-deoxycytidine]
transcript expression of GDF15, HSPA2, TMEFF2 and VIM after promoter demethylation: restored or increased
